The supplement of paper PMC5770543
± gives the standard deviation.

Assays:
[1] = test system: Toxoplasma gondii RH tachyzoites; test: % growth inhibition vs DMSO (48 h luciferase); higher = more inhibition; conditions: 10 µM
[2] = test system: Plasmodium falciparum 3D7; test: % inhibition of schizont-to-ring transition vs DMSO; higher = more inhibition
Outline: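 Schizont-to-ring transition inhibition is the formation of new rings relative to vehicle controls. Tightly synchronised P. falciparum schizonts at about 40–42 hours post-invasion (1% parasitemia, 2.5% hematocrit, AlbuMAX-supplemented RPMI) were treated with compound at 1, 3 or 10 µM, alongside vehicle and positive controls. After glutaraldehyde fixation, Triton permeabilisation and Hoechst 33342 staining, at least 100,000 events were counted by flow cytometry, and values are the mean of three experiments.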

[3] = test system: Plasmodium falciparum 3D7; test: EC50 growth inhibition (60 h, SYBR Green); conditions: stage: ring-stage start
[4] = test system: Toxoplasma gondii RH tachyzoites; test: plaque count per well; higher = less inhibition; extreme values may be limits of the assay; conditions: 10 µM; 8-10 days
Protocol: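 T. gondii RH tachyzoites expressing firefly luciferase were grown in HFF monolayers for 48 h with compound. % growth inhibition at 10 µM and EC50 (2-fold dilutions from 10 µM) were read by luminescence relative to 1% DMSO; EC50 listed as 10 (not determined, <80% inhibition) is left out. Plaque assays: 50 tachyzoites per well with 10 µM compound for 8-10 days, giving plaque count and area by crystal violet/ImageJ. Egress: median time to egress after 1 µM A23187 ionophore following 24 h of 10 µM compound (DMSO ~1.8 min; >10 = no egress within 10 min).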
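Throughout, for % growth inhibition vs DMSO (48 h luciferase): tested in triplicate wells of 96-well plates on confluent HFF monolayers, with 1% DMSO wells as negative control in four replicates.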

Structure (SMILES) | % growth inhibition [1] [%] | % inhibition of schizont-to-ring transition ([2]; 1 µM) [%] | % inhibition of schizont-to-ring transition ([2]; 3 µM) [%] | % inhibition of schizont-to-ring transition ([2]; 10 µM) [%] | EC50 growth inhibition [3] [nM] | plaque count per well [4]
CCCn1c(=N)c(C(=O)NC2CCCCC2)cc2c(=O)n3cccc(C)c3nc21 | 71.06 ± 0.62 | 1.41 | 20.4 | 53.1 | 3810 | 
Nc1ccc(-c2nc3cc(Cc4ccc5[nH]c(-c6ccc(N)cc6)nc5c4)ccc3[nH]2)cc1 | 59.1 ± 11 | 51.3 | 70.1 | 76 | 218 | 
COc1cc(C(=O)Nc2nc3c(cc4c5c(cccc53)CC4)s2)cc(OC)c1OC | 4.43 ± 6.7 | 3.9 | 8.08 | 22.5 |  | 38
CCN(CC)CCNc1ccnc2cc3ccccc3cc12 | 32.4 ± 7.3 | 23.6 | 49 | 53.2 | 192 | 
COc1ccc(C(=O)C2CC2c2ccc(Cl)cc2)cc1 (stereo not given) | 22 ± 8.6 | 8.22 | 39.3 | 58.3 | 2700 | 
Oc1c(CN2CCN(c3ccccc3F)CC2)cc(Br)c2cccnc12 | 74.2 ± 13 | 7.79 | 26.8 | 49.7 | 7420 | 
CCN(CC)S(=O)(=O)c1ccc(-c2csc(Nc3ccc(C)c(C)c3)n2)cc1 | 71.8 ± 4.9 | 5.05 | 6.93 | 26.5 |  | 26
C=C(C)CCC(C)N1CCC(N2CCC(C(=O)NCCc3ccccc3)CC2)CC1 (stereo not given) | 20.9 ± 16 | < 0 | 1.71 | 48 | 3960 | 
CC(C)(C)CC(C)(C)NCC(O)COc1ccc2c(c1)CCC2 (stereo not given) | 61.6 ± 1.5 | 17.3 | 26.1 | 47.6 | 4380 | 
CCCCOC(=O)c1ccc(Nc2cc(C)nc3ccc(OC)cc23)cc1 | 69 ± 12 | 29 | 59.5 | 65.9 | 248 | 
O=C(Nc1nc(-c2ccccn2)cs1)c1ccccc1Br | 98.44 ± 0.08 | 11 | 13.5 | 34.1 | 2160 | 
O=C(Nc1ccc(-c2nc3cc4ccccc4cc3[nH]2)cc1)c1cccc(Br)c1 | 50.3 ± 8.7 | 10.2 | 38.5 | 61.9 | 4310 | 
C=CCc1c(C)nc2ccccc2c1O | 72.7 ± 2.5 | 27.3 | 29.6 | 40.5 | 2260 | 
O=C(NC1CCN(Cc2ccccc2)CC1)c1cc2nc(-c3ccc(Cl)s3)cc(C(F)(F)F)n2n1 | < 0 | 13.4 | 13.8 | 27.3 |  | 22
CCCCCC(=O)N1c2ccccc2N=C2CC(c3ccc(OC)c(OC)c3)CC(O)=C2C1c1ccc(C(F)(F)F)cc1 (stereo not given) | 60.4 ± 3 | 47.1 | 59.5 | 73.2 | 205 | 
CCCc1c(C)nc2ccc(Br)cc2c1O | 39.6 ± 25 | 17 | 24 | 44.8 | 4280 | 
CC1CCCCN1CCCNC(=O)c1ccc2c(c1)sc1nc(-c3ccc(F)cc3)cn12 (stereo not given) | 48.7 ± 9.3 | 15.8 | 61.1 | 73.1 | 400 | 

Structure (SMILES) | % growth inhibition [1] [%] | % inhibition of schizont-to-ring transition ([2]; 1 µM) [%] | % inhibition of schizont-to-ring transition ([2]; 3 µM) [%] | % inhibition of schizont-to-ring transition ([2]; 10 µM) [%] | EC50 growth inhibition [3] [nM] | plaque count per well [4]
CCOc1cc2c(cc1OCC)C(c1cc(Cl)ccc1O)NCC2 (stereo not given) | 46.8 ± 4.8 | 3.63 | 17.7 | 64.1 | 1800 | 
CCC(c1ccccc1)c1nn2c(-c3cccs3)nnc2s1 (stereo not given) | 67.1 ± 4.9 | 48.6 | 60 | 65.8 | 147 | 
COc1ccc(/C=C2/SC(=Nc3ccccc3)NC2=O)cc1 | 22.4 ± 12 | 10.4 | 23 | 53 | 9090 | 
COC(=O)c1ccc(C2C3=C(O)CC(c4ccc(F)cc4)CC3=Nc3ccccc3N2C(=O)c2ccccc2)cc1 (stereo not given) | 61.3 ± 10 | 35.1 | 51.7 | 56 | 6360 | 
Cc1cc(NCCN2CCCCC2)c2ccc3ccccc3c2n1 | 78.3 ± 6.7 | 46.4 | 52.1 | 69.7 | 123 | 
N=c1c2ccccc2nnn1-c1cccc(C(F)(F)F)c1 | 64.1 ± 4.6 | 44.5 | 48.1 | 54.3 | 5760 | 
CCOc1ccc(CCNC(=O)c2cccs2)cc1OCC | 72 ± 8.3 | 10.1 | 47 | 68.3 | 691 | 
Cc1ccc(C)c(Cn2c(N3CCC(C(=O)NCc4cccs4)CC3)nc3ccccc32)c1 | 79.1 ± 1.9 | 18.6 | 69.7 | 68.4 | 6140 | 
CC(=O)c1sc(NC(=O)Nc2ccc(C)cc2C)nc1C | 67.5 ± 3.4 | 10.5 | 30.8 | 49.7 | 1780 | 
COc1cccc(C(=O)Nc2ccc(-c3nc4ccccc4[nH]3)cc2)c1 | 53.9 ± 1.5 | 3.81 | 12.6 | 34.9 | 1620 | 
c1ccc(Cn2c(N=Nc3c(Nc4ccccc4)ccc4ccccc34)nc3ccccc32)cc1 | 29.1 ± 12 | 14.6 | 25.9 | 52.2 | 3520 | 
Oc1ccc(C(=C(Cl)Cl)c2ccc(O)cc2)cc1 | 78.3 ± 3.7 | 11.4 | 53.3 | 73.2 | 877 | 
Cc1ccc(Nc2nc(-c3ccccn3)cs2)cc1 | 99.62 ± 0.17 | 24.9 | 40.7 | 28.2 | 3060 | 
Cc1nc2ccccc2c(O)c1CC=C(Cl)Cl | 79.46 ± 0.64 | 10.8 | 31.3 | 67.4 | 4560 | 
CC1CN(C(=O)c2sc3ccccc3c2Cl)CC(C)O1 (stereo not given) | 74 ± 3.4 | 15.7 | 21.4 | 24.2 | 29.1 | 
COc1ccc(CNC(=O)c2cc3c(=O)n4ccccc4nc3n(CCc3ccccc3)c2=N)cc1 | 56.9 ± 14 | 9.38 | 17.6 | 47 | 2650 | 
Cc1cc(Nc2ccc3ccccc3c2)n2ncnc2n1 | 24.1 ± 23 | 57.1 | 61.7 | 61.5 | 53.7 | 
